The test deals with Gaeumannomyces graminis var. tritici (Ggt). The test can be described thus: In vitro Assay: mycelial growth of Ggt on minimal media agar plates containing test compound. The class given is cell-based. The note with it: dark, 19-20° C., 4 to 5 days, diameter of mycelial growth; for inhibition at 0.1 ppm / inhibition at 1 ppm / inhibition at 10 ppm: Gaeumannomyces graminis; for inhibition at 0.1 ppm / In vitro (ppm) 0.1, Percent Inhibition: 0.1 ppm in minimal media agar; for inhibition at 0.1 ppm: read-out: In vitro (ppm) 0.1, Percent Inhibition; for inhibition at 1 ppm / In vitro (ppm) 1, Percent Inhibition: 1 ppm in minimal media agar; for inhibition at 1 ppm: read-out: In vitro (ppm) 1, Percent Inhibition; for inhibition at 10 ppm / In vitro (ppm) 10, Percent Inhibition: 10 ppm in minimal media agar; for inhibition at 10 ppm: read-out: In vitro (ppm) 10, Percent Inhibition. As to the method:
The test compounds (0.25 mL of an appropriate stock solution in acetone) are incorporated into 25 mL minimal media agar [(prepared by autoclaving a solution of 17.5 g Czapek Dox broth (Difco), 7.5 g purified agar or Bacto-agar (Difco), and 500 mL distilled/deionized water, and then adding 50 μL of 1 mg/mL thiamine hydrochloride and 50 μL of 1 mg/mL biotin in 5% ethanol] and plates are prepared.
Each plate is inoculated by placing in a triangular shape three 4-mm plugs of Gaeumannomyces graminis var. tritici (Ggt) grown on the minimal media agar described above. The plates are incubated in the dark at 19-20° C. for 4 to 5 days. The growth of the fungus is measured as the diameter of the mycelial growth. The result is expressed as Percent Inhibition, calculated as [1-[(mm growth on treated plate −4)/(mm growth on control plate −4)]]×100.

For orientation: inhibition means the relative decrease from the control value, in per cent. For the compound `CCCSC(=O)c1c(Cl)cccc1[Si](C)(C)C` [Example 79, 2-Chloro-6-(trimethylsilyl)-benzenecarbothioic acid, S-propyl ester], the inhibition at 0.1 ppm stood at 12%, the inhibition at 1 ppm is 12% and the inhibition at 10 ppm was determined as 65%.

Take `CCC(C)SC(=O)c1c(Cl)cccc1[Si](C)(C)C` (stereo not drawn) [Example 80, 2-Chloro-6-(trimethylsilyl)-benzenecarbothioic acid, S-(1-methylpropyl) ester]: the inhibition at 0.1 ppm is less than 0%, the inhibition at 1 ppm amounted to 4% and the inhibition at 10 ppm was found to be 46%.

Regarding `CC(C)CSC(=O)c1c(Cl)cccc1[Si](C)(C)C` [Example 81, 2-Chloro-6-(trimethylsilyl)-benzenecarbothioic acid, S-(2-methylpropyl) ester], the inhibition at 0.1 ppm is less than 0%, the inhibition at 1 ppm is less than 0% and the inhibition at 10 ppm is 46%.

Turning to `CCN(CC)C(=O)c1c([Si](C)(C)C)ccc(Cl)c1Cl` [Example 84, N,N-Diethyl-2,3-dichloro-6-(trimethylsilyl)benzamide], the inhibition at 0.1 ppm is less than 0%, the inhibition at 1 ppm turned out to be 66% and the inhibition at 10 ppm stood at 100%.

On to `CCc1ccc([Si](C)(C)C)c(C(=O)N(CC)CC)c1Cl` [Example 85, N,N-Diethyl-2-chloro-3-ethyl-6-(trimethylsilyl)benzamide], for which the inhibition at 0.1 ppm was 7%, the inhibition at 1 ppm worked out at 7% and the inhibition at 10 ppm was found to be 59%.

As for `CCN(CC)C(=O)c1c([Si](C)(C)C)ccc([Si](C)(C)C)c1Cl` [Example 86, N,N-Diethyl-2-chloro-3,6-bis(trimethylsilyl)benzamide], the inhibition at 0.1 ppm was less than 0%, the inhibition at 1 ppm was 24% and the inhibition at 10 ppm was 72%.

Regarding `CCN(CC)C(=O)c1c([Si](C)(C)C)ccc(F)c1Cl` [Example 88, N,N-Diethyl-2-chloro-3-fluoro-6-(trimethylsilyl)benzamide], the inhibition at 0.1 ppm was less than 0%, the inhibition at 1 ppm was less than 0% and the inhibition at 10 ppm was found to be 73%.

Take `CCNC(=O)c1c(F)cccc1SC(C)(C)C` [Example 90]: the “In vitro (ppm) 0.1, Percent Inhibition” value is 6%; the “In vitro (ppm) 1, Percent Inhibition” value is 34%; the “In vitro (ppm) 10, Percent Inhibition” value is 89%.

As to `CCNC(=O)c1c(F)cccc1CC(C)(C)C` [Example 93, 2-(2,2-Dimethylpropyl)-N-ethyl-6-fluorobenzamide], the inhibition at 0.1 ppm is less than 0%, the inhibition at 1 ppm was less than 0% and the inhibition at 10 ppm is 26%.

With `CCNC(=O)c1c(F)cccc1-c1ccccc1C` [Example 94, N-Ethyl-2-fluoro-6-(2-methylphenyl)benzamide], the inhibition at 0.1 ppm turned out to be 9%, the inhibition at 1 ppm worked out at 63% and the inhibition at 10 ppm came to 86%.

As to `CCCCCCC(C)N(CC)C(=O)c1c(Cl)cccc1[Si](C)(C)C` (stereo not drawn) [Example 96, 2-Chloro-N-ethyl-N-(1-methylheptyl)-6-(trimethylsilyl)benzamide], the inhibition at 0.1 ppm worked out at 7%, the inhibition at 1 ppm is 15% and the inhibition at 10 ppm came to 48%.

Consider `CCN(CC)C(=O)c1c(C(F)F)cccc1[Si](C)(C)C` [Example 97, 2-(Difluoromethyl)-N,N-diethyl-6-(trimethylsilyl)benzamide], for which the inhibition at 0.1 ppm came to 7%, the inhibition at 1 ppm stood at 70% and the inhibition at 10 ppm was determined as 100%.

Take `CN(Cc1ccc(C(C)(C)C)cc1)C(=O)c1c(Cl)cccc1[Si](C)(C)C` [Example 101, 2-Chloro-N-[[4-(1,1-dimethylethyl)phenyl]methyl]-N-methyl-6-(trimethylsilyl)-benzamide]: the inhibition at 0.1 ppm was 10%, the inhibition at 1 ppm was determined as 21% and the inhibition at 10 ppm is 62%.

On to `C[Si](C)(C)c1cccc(Cl)c1C(=O)NCc1ccc(C(F)(F)F)cc1` [Example 102, 2-Chloro-N-[[4-(trifluoromethyl)phenyl]-methyl]-6-(trimethylsilyl)-benzamide], for which the inhibition at 0.1 ppm amounted to 28%, the inhibition at 1 ppm worked out at 52% and the inhibition at 10 ppm was determined as 28%.

With `CCN(CC=CC#CC(C)(C)C)C(=O)c1c(Cl)cccc1[Si](C)(C)C` [Example 104, 2-Chloro-N-(6,6-dimethyl-2-hepten-4-ynyl)-N-ethyl-6-(trimethylsilyl)benzamide], the inhibition at 0.1 ppm is less than 0%, the inhibition at 1 ppm came to 26% and the inhibition at 10 ppm is 71%.

For `CN(CC=Cc1ccccc1)C(=O)c1c(Cl)cccc1[Si](C)(C)C` [Example 105, 2-Chloro-N-methyl-N-(3-phenyl-2-propenyl)-6-(trimethylsilyl)benzamide], the inhibition at 0.1 ppm was found to be 3%, the inhibition at 1 ppm was determined as 37% and the inhibition at 10 ppm stood at 84%.

In the case of `C#CC(C)(C)NC(=O)c1c(Cl)cccc1[Si](C)(C)C` [Example 107, 2-Chloro-N-(1,1-dimethyl-2-propynyl)-6-(trimethylsilyl)benzamide], the inhibition at 0.1 ppm was less than 0%, the inhibition at 1 ppm was less than 0% and the inhibition at 10 ppm was 24%.

Take `C#CCNC(=O)c1c(Cl)cccc1[Si](C)(C)C` [Example 108, 2-Chloro-N-(2-propynyl)-6-(trimethylsilyl)benzamide]: the inhibition at 0.1 ppm was 90%, the inhibition at 1 ppm worked out at 86% and the inhibition at 10 ppm worked out at 97%.

As to `CCOC(=O)Nc1c(Cl)cccc1[Si](C)(C)C` [Example 109, [2-Chloro-6-(trimethylsilyl)phenyl]carbamic acid, ethyl ester], the inhibition at 0.1 ppm was 10%, the inhibition at 1 ppm came to 10% and the inhibition at 10 ppm worked out at 83%.

Regarding `CCNC(=O)Nc1c(Cl)cccc1[Si](C)(C)C` [Example 110, N-[2-Chloro-6-(trimethylsilyl)phenyl]-N′-ethylurea], the inhibition at 0.1 ppm came out at 7%, the inhibition at 1 ppm is 17% and the inhibition at 10 ppm was found to be 45%.

Take `C/C=C\NC(=O)c1c(Cl)cccc1[Si](C)(C)C` [Example 112, (Z)-2-Chloro-N-1-propenyl-6-(trimethylsilyl)benzamide]: the inhibition at 0.1 ppm worked out at 81%, the inhibition at 1 ppm amounted to 96% and the inhibition at 10 ppm came to 100%.

For the compound `C/C=C/NC(=O)c1c(Cl)cccc1[Si](C)(C)C` [Example 113, (E)-2-Chloro-N-1-propenyl-6-(trimethylsilyl)benzamide], the inhibition at 0.1 ppm was less than 0%, the inhibition at 1 ppm was determined as 26% and the inhibition at 10 ppm is 96%.

In the case of `CCNC(=O)c1c(Cl)ccc[c]1[Sn]([CH3])([CH3])[CH3]` [Example 115, 2-Chloro-N-ethyl-6-(trimethylstannyl)benzamide], the “In vitro (ppm) 0.1, Percent Inhibition” value amounted to 97%; the “In vitro (ppm) 1, Percent Inhibition” value was determined as 97%; the “In vitro (ppm) 10, Percent Inhibition” value is 97%.

With `CCNC(=O)c1c(F)cccc1[Si](C)(C)C` [Example 117, N-Ethyl-2-fluoro-6-(trimethylsilyl)benzamide], the inhibition at 0.1 ppm came out at 36%, the inhibition at 1 ppm was found to be 94% and the inhibition at 10 ppm is 97%.
